# From PubChem BioAssay (NCI)
#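 Five compound concentrations were applied to cells in 96-well plates for 48 hours; endpoints were derived by simple linear interpolation of the resulting dose-response curve. GI50 is the concentration that inhibits growth by half. The concentration for full growth arrest is given as TGI.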
# What was measured:
# Experiment in all cases: NCI anticancer screen, dose series, 48 h
# HL-60(TB) leukemia = tested on: HL-60(TB) leukemia
# IGROV1 ovarian = tested on: IGROV1 ovarian
# SK-MEL-5 melanoma = tested on: SK-MEL-5 melanoma
# SR leukemia = tested on: SR leukemia
# NCI-H23 lung = tested on: NCI-H23 lung
# K-562 leukemia = tested on: K-562 leukemia
# SN12C renal = tested on: SN12C renal
# NCI-H226 lung = tested on: NCI-H226 lung
# UO-31 renal = tested on: UO-31 renal
# SK-OV-3 ovarian = tested on: SK-OV-3 ovarian
SMILES,GI50 (HL-60(TB) leukemia) [µM],TGI (HL-60(TB) leukemia) [µM],GI50 (IGROV1 ovarian) [µM],TGI (IGROV1 ovarian) [µM],GI50 (SK-MEL-5 melanoma) [µM],TGI (SK-MEL-5 melanoma) [µM],GI50 (SR leukemia) [µM],TGI (SR leukemia) [µM],GI50 (NCI-H23 lung) [µM],TGI (NCI-H23 lung) [µM],GI50 (K-562 leukemia) [µM],TGI (K-562 leukemia) [µM],GI50 (SN12C renal) [µM],TGI (SN12C renal) [µM],GI50 (NCI-H226 lung) [µM],TGI (NCI-H226 lung) [µM],GI50 (UO-31 renal) [µM],TGI (UO-31 renal) [µM],GI50 (SK-OV-3 ovarian) [µM],TGI (SK-OV-3 ovarian) [µM]
C/C(=N\NC(=O)c1ccncc1)c1ccccc1O,2.96,11.6,1.8,> 100,3.6,32.2,1.8,> 100,4.34,> 100,5.78,> 100,4.79,> 100,6.27,> 100,0.973,28.9,4.84,> 100
O=C(Nc1ccccc1)Oc1ccccc1C1CCCCC1,,35.2,,> 100,,26.9,,55.7,,47.1,,50.3,,41.1,,37.6,,74.3,,> 100
Cc1cccc(Cc2cnc(NC(=O)CCCOc3ccc(Cl)cc3)s2)c1,2.24,5.1,9.21,> 100,3.69,> 100,2.51,> 100,28,> 100,3.84,> 100,5.26,> 100,59.3,> 100,4.52,> 100,> 100,> 100
CC1=CC(=O)N2[C@H](OC[C@@H]2C(C)C)O1,,> 100,,> 100,,> 100,,> 100,,> 100,,> 100,,> 100,,> 100,,> 100,,> 100
CC(=O)OC1CCC2(C)C(=CCC3C4CC(CN5CC5)C(=O)C4(C)CCC32)C1 (centres undefined),4.12,16.8,4.23,15.2,12.7,25.9,3.39,13.5,14,30,3.33,14.2,15.4,30.4,14.8,40.2,2.99,10.4,15.6,29.6
Cn1c(=O)c(-c2c(Cl)cccc2Cl)cc2cnc(Nc3ccc(N4CCOCC4)cc3)nc21,0.0137,0.216,,1.33,0.149,1.34,0.14,0.471,< 0.01,0.31,< 0.01,0.0538,0.129,4.65,0.0748,> 100,2.29,6.66,< 0.01,> 100
COc1cc(-c2nn(-c3cccc(NC(=O)c4cccc(C(F)(F)F)c4)c3)cc2-c2ccncc2)ccc1Cl,2.02,> 50,1.83,> 50,0.978,2.47,0.838,4.59,1.56,32.5,1.4,> 50,3.31,> 50,1.66,27,0.969,> 50,2.29,> 50
CCn1c(SC)nnc1-c1cc2c([nH]c3ccccc32)c(-c2cccc(O)c2)n1,0.929,7.86,2.57,52,1.03,5.97,0.34,> 100,4.51,50.6,0.547,> 100,4.44,51.4,1.91,4.9,1.94,15.8,2.44,6.3
O=C(COC(=O)[C@H](C[Se][Se]C[C@H](NC(=O)c1ccc(Br)cc1F)C(=O)OCC(=O)c1ccc(F)cc1)NC(=O)c1ccc(Br)cc1F)c1ccc(F)cc1,0.425,> 100,1.35,3,1.23,4.27,0.92,> 43.5,0.692,2.7,2.83,> 26.4,1.27,2.98,1.02,3.63,1.11,2.79,0.415,1.31
COC(=O)N/N=C(\c1nc2ccc(Cl)cc2[nH]c1=O)C(O)c1ccc([N+](=O)[O-])cc1 (centres undefined),,> 100,,> 100,,> 100,,> 100,,> 100,,> 100,,> 100,,> 100,,> 100,,> 100
COc1cc(COC(=O)NC(Cc2cccs2)C(=O)O)c([N+](=O)[O-])cc1OC (centres undefined),,> 100,,> 100,,> 100,,> 100,,> 100,,> 100,,> 100,,> 100,,> 100,,> 100
